# In ChEMBL document CHEMBL4823243, “Synergistic induction of apoptosis in resistant head and neck carcinoma and leukemia by alkoxyamide-based histone deacetylase inhibitors” (Eur J Med Chem, 2021):
# Activity calls are given as the source filed them. The rule behind the calls is not given here.
# What was measured:
# Histone deacetylase [1] = assay: Inhibition of HDAC in human A2780 cells using Boc-Lys (acetyl)-AMC as substrate preincubated for 18 hrs followed by susbtrate addition and measured after 3 hrs by fluorescence microplate reader assay; format: cell-based
# Histone deacetylase [2] = assay: Inhibition of HDAC in human CAL-27 cells using Boc-Lys (acetyl)-AMC as substrate preincubated for 18 hrs followed by susbtrate addition and measured after 3 hrs by fluorescence microplate reader assay; format: cell-based
# A2780 = assay: Antiproliferative activity against human A2780 cells assessed as reduction in cell viability after 72 hrs by MTT assay; format: functional, cell-based; settings: A2780, 72 h
# CAL-27 = assay: Antiproliferative activity against human CAL-27 cells assessed as reduction in cell viability after 72 hrs by MTT assay; format: functional, cell-based; settings: CAL-27, 72 h
# [3] = Inhibition of Class 1/2b HDAC in human HL-60 cells by HDAC-Glo assay; format: cell-based
# HL-60 = assay: Antiproliferative activity against human HL-60 cells assessed as reduction in cell viability for 72 hrs by Celltitre-Glo luminescent assay; format: functional, cell-based; settings: HL-60, 72 h
# Histone deacetylase 4 = Histone deacetylase 4 (Homo sapiens, UniProt P56524); assay: Inhibition of recombinant human N-terminal GST-fusion tagged/C-terminal GST-tagged HDAC4 (627 to 1084 residues) expressed in baculovirus infected insect cells using Boc-Lys(TFA)-AMC as substrate preincubated for 5 mins followed by substrate addition measured after 90 mins by fluorimetry
# Histone deacetylase 4, sequence (P56524 whole entry, the tested form may be a part): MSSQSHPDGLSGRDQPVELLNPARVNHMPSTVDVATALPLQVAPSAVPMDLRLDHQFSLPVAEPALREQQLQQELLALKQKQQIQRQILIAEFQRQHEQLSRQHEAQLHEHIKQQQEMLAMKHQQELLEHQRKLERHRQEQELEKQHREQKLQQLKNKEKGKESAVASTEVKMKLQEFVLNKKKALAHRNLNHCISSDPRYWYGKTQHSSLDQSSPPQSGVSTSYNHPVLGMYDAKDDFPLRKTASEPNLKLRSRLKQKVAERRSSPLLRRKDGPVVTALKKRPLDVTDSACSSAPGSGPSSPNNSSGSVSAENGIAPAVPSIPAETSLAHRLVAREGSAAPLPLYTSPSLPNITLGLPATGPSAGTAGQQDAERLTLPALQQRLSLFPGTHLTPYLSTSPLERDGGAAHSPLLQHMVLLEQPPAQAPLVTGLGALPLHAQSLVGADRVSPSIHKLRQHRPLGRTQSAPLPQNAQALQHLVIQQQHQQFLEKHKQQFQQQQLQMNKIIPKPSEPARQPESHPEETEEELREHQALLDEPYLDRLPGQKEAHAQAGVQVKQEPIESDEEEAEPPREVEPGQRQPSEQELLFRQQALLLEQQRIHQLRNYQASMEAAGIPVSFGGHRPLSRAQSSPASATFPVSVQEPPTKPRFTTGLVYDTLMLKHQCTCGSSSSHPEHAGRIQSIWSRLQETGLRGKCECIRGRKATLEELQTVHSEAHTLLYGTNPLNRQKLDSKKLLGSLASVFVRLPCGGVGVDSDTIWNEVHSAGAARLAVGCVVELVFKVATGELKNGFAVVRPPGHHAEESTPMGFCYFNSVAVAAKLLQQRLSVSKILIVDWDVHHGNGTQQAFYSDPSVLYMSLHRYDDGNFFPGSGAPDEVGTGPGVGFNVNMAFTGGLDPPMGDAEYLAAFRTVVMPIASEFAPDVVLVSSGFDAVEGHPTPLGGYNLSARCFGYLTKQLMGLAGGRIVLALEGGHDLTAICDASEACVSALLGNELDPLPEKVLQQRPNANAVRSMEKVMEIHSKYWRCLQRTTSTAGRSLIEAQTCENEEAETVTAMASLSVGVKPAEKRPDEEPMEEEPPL
# Histone deacetylase 2 = Histone deacetylase 2 (Homo sapiens, UniProt Q92769); assay: Inhibition of recombinant human full length C-terminal GST-fusion tagged HDAC2 expressed in baculovirus infected insect cells using Boc-Lys(Ac)-AMC as substrate preincubated for 5 mins followed by substrate addition measured after 90 mins by fluorimetry; format: cell-based
# Histone deacetylase 2, sequence (Q92769 whole entry, the tested form may be a part): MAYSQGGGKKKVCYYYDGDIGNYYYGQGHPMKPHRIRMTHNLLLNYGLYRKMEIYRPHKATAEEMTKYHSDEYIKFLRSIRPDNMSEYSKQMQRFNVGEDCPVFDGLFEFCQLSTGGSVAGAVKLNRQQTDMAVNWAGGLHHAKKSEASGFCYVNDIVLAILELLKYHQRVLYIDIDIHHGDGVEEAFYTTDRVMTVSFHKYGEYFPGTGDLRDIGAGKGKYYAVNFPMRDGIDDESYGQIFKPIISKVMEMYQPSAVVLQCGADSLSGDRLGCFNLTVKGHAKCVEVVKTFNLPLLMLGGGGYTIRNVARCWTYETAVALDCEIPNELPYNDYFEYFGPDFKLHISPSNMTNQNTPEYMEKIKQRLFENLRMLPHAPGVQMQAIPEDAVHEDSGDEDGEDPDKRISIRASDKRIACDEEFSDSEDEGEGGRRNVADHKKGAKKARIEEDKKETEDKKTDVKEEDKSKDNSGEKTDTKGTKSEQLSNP
# [4] = molecular target: T1, Histone deacetylase (Homo sapiens) (UniProt Q13547+O15379+Q9UBN7+Q92769+Q9UQL6+Q8WUI4+Q9BY41+Q96DB2+P56524+Q9UKV0+Q969S8); assay: Inhibition of HDAC in human Cal27CisR cells assessed as potentiation of cisplatin-induced cytotoxicity by measuring cisplatin IC50 at 3 to 4 uM pretreated for 48 hrs followed by cisplatin addition and measured after 72 hrs by MTT assay relative to cisplatin alone; format: cell-based; settings: dose 3-4 µM, time 120.0 hrs
# [5] = molecular target: T2, Protein deacetylase HDAC6 (Homo sapiens, UniProt Q9UBN7); assay: Inhibition of recombinant human N-terminal GST-tagged HDAC6 (1 to 1215 residues) expressed in baculovirus infected insect cells using Boc-Lys(Ac)-AMC as substrate preincubated for 5 mins followed by substrate addition measured after 90 mins by fluorimetry
# T2 sequence (Q9UBN7 whole entry): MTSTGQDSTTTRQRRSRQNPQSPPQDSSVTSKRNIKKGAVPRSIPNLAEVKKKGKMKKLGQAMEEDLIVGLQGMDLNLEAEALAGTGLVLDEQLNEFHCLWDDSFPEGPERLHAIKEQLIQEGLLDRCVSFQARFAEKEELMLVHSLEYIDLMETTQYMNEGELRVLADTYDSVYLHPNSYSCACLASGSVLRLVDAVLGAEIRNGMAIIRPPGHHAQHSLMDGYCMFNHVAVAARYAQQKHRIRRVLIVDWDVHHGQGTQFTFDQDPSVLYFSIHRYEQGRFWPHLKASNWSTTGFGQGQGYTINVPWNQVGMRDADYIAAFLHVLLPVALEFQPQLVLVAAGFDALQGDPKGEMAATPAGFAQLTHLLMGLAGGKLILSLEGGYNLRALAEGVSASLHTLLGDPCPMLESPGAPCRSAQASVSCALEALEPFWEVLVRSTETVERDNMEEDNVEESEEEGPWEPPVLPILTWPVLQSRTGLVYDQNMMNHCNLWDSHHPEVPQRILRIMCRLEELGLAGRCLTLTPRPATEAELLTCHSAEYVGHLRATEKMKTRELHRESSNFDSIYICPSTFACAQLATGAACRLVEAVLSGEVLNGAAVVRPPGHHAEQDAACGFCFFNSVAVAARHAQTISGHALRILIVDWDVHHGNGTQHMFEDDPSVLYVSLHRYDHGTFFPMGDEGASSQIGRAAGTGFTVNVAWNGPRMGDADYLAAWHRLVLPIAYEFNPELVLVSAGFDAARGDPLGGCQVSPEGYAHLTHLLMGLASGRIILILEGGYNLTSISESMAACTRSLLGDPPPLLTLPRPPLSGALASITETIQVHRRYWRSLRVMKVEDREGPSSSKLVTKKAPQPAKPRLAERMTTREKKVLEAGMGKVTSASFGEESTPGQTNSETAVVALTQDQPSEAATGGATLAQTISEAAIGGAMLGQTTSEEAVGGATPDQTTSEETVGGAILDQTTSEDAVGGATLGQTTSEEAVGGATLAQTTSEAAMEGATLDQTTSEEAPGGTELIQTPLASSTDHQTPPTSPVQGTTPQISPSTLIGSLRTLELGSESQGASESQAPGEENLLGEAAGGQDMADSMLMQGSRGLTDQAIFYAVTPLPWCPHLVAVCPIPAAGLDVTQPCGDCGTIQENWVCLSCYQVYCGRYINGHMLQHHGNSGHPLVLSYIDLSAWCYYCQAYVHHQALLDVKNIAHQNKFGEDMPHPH
# [6] = molecular target: T1, Histone deacetylase (Homo sapiens); assay: Inhibition of HDAC in human CAL-27 cells assessed as potentiation of cisplatin-induced cytotoxicity by measuring cisplatin IC50 at 3 to 4 uM pretreated for 48 hrs followed by cisplatin addition and measured after 72 hrs by MTT assay relative to cisplatin alone; format: cell-based; settings: dose 3-4 µM, time 120.0 hrs
# Histone deacetylase [7] = assay: Inhibition of HDAC in human Cal27CisR cells assessed as potentiation of cisplatin-induced cytotoxicity by measuring cisplatin IC50 at 3 to 4 uM pretreated for 48 hrs followed by cisplatin addition and measured after 72 hrs by MTT assay (reference value: 3.57 uM); format: cell-based
# Histone deacetylase 8 = molecular target: T3, Histone deacetylase 8 (Homo sapiens, UniProt Q9BY41); assay: Inhibition of recombinant human C-terminal His-fusion tagged/N-terminal Strep2 tagged HDAC8 (1 to 377 residues) expressed in insect cells using Boc-Lys(TFA)-AMC as substrate preincubated for 5 mins followed by substrate addition measured after 90 mins by fluorimetry
# T3 sequence (Q9BY41 whole entry): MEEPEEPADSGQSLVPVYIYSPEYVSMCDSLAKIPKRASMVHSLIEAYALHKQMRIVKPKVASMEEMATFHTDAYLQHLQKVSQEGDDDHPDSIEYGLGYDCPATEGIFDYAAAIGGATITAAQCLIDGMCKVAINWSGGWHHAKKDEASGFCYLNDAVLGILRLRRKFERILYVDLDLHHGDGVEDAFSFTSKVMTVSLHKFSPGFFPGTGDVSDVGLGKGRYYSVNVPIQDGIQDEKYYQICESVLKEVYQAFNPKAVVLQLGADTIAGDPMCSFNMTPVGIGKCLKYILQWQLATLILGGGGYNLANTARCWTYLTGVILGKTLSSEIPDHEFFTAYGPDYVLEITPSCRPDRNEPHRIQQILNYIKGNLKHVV
# Histone deacetylase [8] = assay: Inhibition of HDAC in human CAL-27 cells assessed as potentiation of cisplatin-induced cytotoxicity by measuring cisplatin IC50 at 3 to 4 uM pretreated for 48 hrs followed by cisplatin addition and measured after 72 hrs by MTT assay (reference value: 3.57 uM); format: cell-based
# [9] = molecular target: T4, Protein deacetylase HDAC6 (Homo sapiens) (UniProt Q9UBN7); assay: Inhibition of HDAC6 in human CAL-27 cells assessed as accumulation of acetylated alpha-tubulin at 1 uM for 24 hrs by Western blot analysis; format: cell-based
# T4 sequence (whole entry): T2 sequence (Q9UBN7 whole entry)
# Histone deacetylase [10] = assay: Inhibition of HDAC in human CAL-27 cells assessed as potentiation of cisplatin-induced cytotoxicity by measuring cisplatin IC50 at 0.3 to 0.5 uM pretreated for 48 hrs followed by cisplatin addition and measured after 72 hrs by MTT assay (reference value: 3.57 uM); format: cell-based
# [11] = molecular target: T1, Histone deacetylase (Homo sapiens); assay: Inhibition of HDAC in human Cal27CisR cells assessed as potentiation of cisplatin-induced cytotoxicity by measuring fold reduction in cisplatin IC50 at 0.3 to 0.5 uM pretreated for 48 hrs followed by cisplatin addition and measured after 72 hrs by MTT assay relative to cisplatin alone; format: cell-based; settings: dose 0.3-0.5 µM, time 120.0 hrs
# [12] = molecular target: T1, Histone deacetylase (Homo sapiens); assay: Inhibition of HDAC in human CAL-27 cells assessed as potentiation of cisplatin-induced cytotoxicity by measuring fold reduction in cisplatin IC50 at 0.3 to 0.5 uM pretreated for 48 hrs followed by cisplatin addition and measured after 72 hrs by MTT assay relative to cisplatin alone; format: cell-based; settings: dose 0.3-0.5 µM, time 120.0 hrs
# [13] = molecular target: T4, Protein deacetylase HDAC6 (Homo sapiens); assay: Inhibition of HDAC6 in human CAL-27 cells assessed as accumulation of acetylated alpha-tubulin at 5 uM for 24 hrs by Western blot analysis; format: cell-based
# Histone deacetylase [14] = assay: Inhibition of HDAC in human Cal27CisR cells assessed as potentiation of cisplatin-induced cytotoxicity by measuring cisplatin IC50 at 0.3 to 0.5 uM pretreated for 48 hrs followed by cisplatin addition and measured after 72 hrs by MTT assay (reference value: 3.57 uM); format: cell-based
Compound,IC50 (Histone deacetylase [1]),IC50 (Histone deacetylase [2]),IC50 (A2780),IC50 (CAL-27),other results
O=C(CCCCCONC(=O)c1ccnc2ccccc12)NO,7680 nM,5970 nM,70000 nM,11900 nM,
O=C(CCCCCONC(=O)c1cccc2ccccc12)NO,2390 nM,1890 nM,7600 nM,4200 nM,
O=C(CCCCCCNC(=O)c1cnc(N(c2ccccc2)c2ccccc2)nc1)NO [RICOLINOSTAT],,,,,IC50 [3]: 902 nM; IC50 (HL-60): > 10000 nM
O=C(CCCCCONC(=O)c1cnc2ccccc2n1)NO,190 nM,490 nM,7700 nM,800 nM,IC50 (Histone deacetylase 4): 60800 nM; IC50 (Histone deacetylase 2): 44 nM; Ratio IC50 [4]: 2.6; IC50 [5]: 18 nM; Ratio IC50 [6]: 1.23; IC50 (Histone deacetylase [7]): 18700 nM; IC50 (Histone deacetylase 8): 7950 nM; IC50 (Histone deacetylase [8]): 2900 nM
O=C(CCCCCONC(=O)c1cccc2[nH]ccc12)NO,740 nM,480 nM,5300 nM,1200 nM,
O=C(CCCCCONC(=O)c1nc2ccccc2s1)NO,2700 nM,3160 nM,21800 nM,6330 nM,
O=C(CCCCCONC(=O)c1cc2ccccc2s1)NO,1580 nM,2250 nM,4880 nM,500 nM,
O=C(CCCCCONC(=O)c1cc2ccccc2o1)NO,1710 nM,1990 nM,5560 nM,780 nM,
O=C(CCCCCONC(=O)c1[nH]nc2ccccc12)NO,710 nM,430 nM,7600 nM,1800 nM,
Nc1ccccc1NC(=O)c1ccc(CNC(=O)OCc2cccnc2)cc1,,,,,inhibition [9]: inactive
O=C(CCCCCONC(=O)c1ccc2[nH]ccc2c1)NO,850 nM,450 nM,7500 nM,1300 nM,
O=C(CCCCCONC(=O)c1nc2ccccc2[nH]1)NO,9080 nM,4170 nM,> 100000 nM,58200 nM,
O=C(CCCCCONC(=O)c1cccc2cc[nH]c12)NO,640 nM,460 nM,1000 nM,1000 nM,
O=C(CCCCCONC(=O)c1ccc2cc[nH]c2c1)NO,600 nM,400 nM,11300 nM,4300 nM,
O=C(CCCCCONC(=O)c1ccc2ccccc2c1)NO,350 nM,100 nM,1000 nM,180 nM,IC50 (Histone deacetylase 4): 51800 nM; IC50 (Histone deacetylase [10]): 2320 nM; Ratio IC50 [11]: 5.09; IC50 (Histone deacetylase 2): 41 nM; IC50 [5]: 11 nM; Ratio IC50 [12]: 1.54; inhibition [13]: Active; IC50 (Histone deacetylase [14]): 9530 nM; IC50 (Histone deacetylase 8): 3790 nM
O=C(CCCCCONC(=O)Cc1ccc2ccccc2c1)NO,3710 nM,1720 nM,6280 nM,3570 nM,
O=C(CCCCCONC(=O)c1c[nH]c2ccccc12)NO,1360 nM,810 nM,7800 nM,1700 nM,
CC(C)(C)OC(=O)Nc1ccc(-c2cc(C(=O)NCCCCCCC(=O)NO)no2)cc1,,,,,IC50 [3]: 109 nM; IC50 (HL-60): 594 nM
